# Assay results reported in ChEMBL document CHEMBL1148851, “Chemoenzymatic synthesis and in vitro studies on the hydrolysis of antimicrobial monoglycosyl diglycerides by pancreatic lipase” (2007).
# What was measured:
# Type in all cases: functional
# [1] = test system: Staphylococcus aureus; assay: Antibacterial activity against Staphylococcus aureus SA85 isolate
# [2] = test system: Pseudomonas aeruginosa; assay: Antibacterial activity against Pseudomonas aeruginosa ATCC 27753
# [3] = test system: Bacillus subtilis; assay: Antibacterial activity against Bacillus subtilis ATCC 6633; details: Bacillus subtilis, ATCC 6633; read-out: MIC
# [4] = test system: Staphylococcus aureus; assay: Antibacterial activity against Staphylococcus aureus ATCC 105487
# [5] = test system: Enterococcus faecalis; assay: Antibacterial activity against Enterococcus faecalis ATCC 29212
# [6] = test system: Staphylococcus aureus; assay: Antibacterial activity against Staphylococcus aureus SA87 isolate; details: Staphylococcus aureus; read-out: MIC
# [7] = test system: Staphylococcus aureus; assay: Antibacterial activity against Staphylococcus aureus ATCC 25923
# [8] = test system: Mycobacterium tuberculosis; assay: Antibacterial activity against Mycobacterium tuberculosis H37Rv by dilution method; details: Mycobacterium tuberculosis, H37Rv; read-out: MIC
# [9] = test system: Kluyveromyces marxianus; assay: Antifungal activity against Candida pseudotropicalis by dilution method
# [10] = test system: Candida albicans; assay: Antifungal activity against Candida albicans by dilution method
# [11] = test system: Staphylococcus aureus; assay: Antibacterial activity against Staphylococcus aureus SA52 isolate
# [12] = test system: Escherichia coli; assay: Antibacterial activity against Escherichia coli ATCC 25922
# [13] = test system: Mycobacterium tuberculosis; assay: Antibacterial activity against Mycobacterium tuberculosis H190 by dilution method
# [14] = test system: Mycobacterium tuberculosis; assay: Antibacterial activity against Mycobacterium tuberculosis H160 by dilution method; details: Mycobacterium tuberculosis, H160; read-out: MIC
SMILES,MIC [1] [µg/mL],MIC [2] [µg/mL],MIC [3] [µg/mL],MIC [4] [µg/mL],MIC [5] [µg/mL],MIC [6] [µg/mL],MIC [7] [µg/mL],MIC [8] [µg/mL],MIC [9] [µg/mL],MIC [10] [µg/mL],MIC [11] [µg/mL],MIC [12] [µg/mL],MIC [13] [µg/mL],MIC [14] [µg/mL]
CCCCCCCC(=O)OCC(CO[C@@H]1O[C@H](CO)[C@H](O)[C@H](O)[C@H]1O)OC(=O)CCCCCCC (stereo not given in full),32,> 128,32,32,32,32,32,128,> 128,> 128,> 128,> 128,128,128
CCCCC/C=C\C/C=C\CCCCCCCC(=O)OC(COC(=O)CCCCCCCCC)CO[C@@H]1O[C@H](CO)[C@H](O)[C@H](O)[C@H]1O (stereo not given in full),64,> 128,128,64,128,64,> 128,> 128,> 128,> 128,> 128,> 128,> 128,> 128
CCCCC/C=C\C/C=C\CCCCCCCC(=O)OC(COC(=O)CCCCCCC)CO[C@@H]1O[C@H](CO)[C@@H](O)[C@H](O)[C@H]1O (stereo not given in full),> 128,> 128,128,> 128,> 128,64,> 128,64,> 128,> 128,> 128,> 128,64,128
CCCCCCCCCCCCCC(=O)OCC(CO[C@@H]1O[C@H](CO)[C@H](O)[C@H](O)[C@H]1O)OC(=O)CCCCCCCCCCCCC (stereo not given in full),> 128,> 128,> 128,> 128,> 128,> 128,> 128,> 128,> 128,> 128,> 128,> 128,> 128,> 128
CCCCC/C=C\C/C=C\CCCCCCCC(=O)OC(COC(=O)CCCCCCC)CO[C@@H]1O[C@H](CO)[C@H](O)[C@H](O)[C@H]1O (stereo not given in full),> 128,> 128,128,> 128,> 128,128,> 128,64,> 128,> 128,> 128,> 128,128,64
CCCCCCCC/C=C\CCCCCCCC(=O)OC(COC(=O)CCCCCCCCC)CO[C@@H]1O[C@H](CO)[C@H](O)[C@H](O)[C@H]1O (stereo not given in full),128,> 128,32,> 128,> 128,> 128,128,> 128,> 128,> 128,> 128,> 128,> 128,> 128
CC/C=C\C/C=C\C/C=C\CCCCCCCC(=O)OC(COC(=O)CCCCCCCCC)CO[C@@H]1O[C@H](CO)[C@@H](O)[C@H](O)[C@H]1O (stereo not given in full),64,> 128,> 128,> 128,> 128,32,> 128,> 128,> 128,> 128,> 128,> 128,> 128,> 128
CCCCCCCC/C=C\CCCCCCCC(=O)OCC(CO[C@@H]1O[C@H](CO)[C@@H](O)[C@H](O)[C@H]1O)OC(=O)CCCCCCC/C=C\CCCCCCCC (stereo not given in full),> 128,> 128,> 128,> 128,> 128,> 128,> 128,> 128,> 128,> 128,> 128,> 128,> 128,> 128
CC/C=C\C/C=C\C/C=C\CCCCCCCC(=O)OC(COC(=O)CCCCCCCCC)CO[C@@H]1O[C@H](CO)[C@H](O)[C@H](O)[C@H]1O (stereo not given in full),64,> 128,> 128,> 128,> 128,32,> 128,> 128,> 128,> 128,> 128,> 128,> 128,> 128
CCCCCCCCCCCC(=O)OCC(CO[C@@H]1O[C@H](CO)[C@H](O)[C@H](O)[C@H]1O)OC(=O)CCCCCCCCCCC (stereo not given in full),> 128,> 128,> 128,> 128,> 128,> 128,> 128,> 128,> 128,> 128,> 128,> 128,> 128,> 128
